Read-outs that look alike come from different tables or passages of the source.
How the values were obtained:
HepG2 cells = assay: In vitro cytotoxicity assay (MTT cell viability) in HepG2 cells; format: cell-based, human
In short: (§1)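 Parental HepG2 cells in EMEM + 10% FBS were exposed to compounds (8 half-log dilutions, 30 μM to 1.0 nM) for 7 days at 37 °C, 5% CO2. MTT was then added for 3-4 h, formazan dissolved in DMSO and absorbance read at 492 nm; CC50 came from 4-parameter fits against vehicle controls.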

[1] = tested on: HBV replication in HepAD38 cells; assay: Anti-HBV replication assay in HepAD38 cells (QPCR of extracellular HBV DNA); format: cell-based, HBV (genotype D, serotype ayw); conditions: 7 days incubation, extracellular HBV DNA by QPCR, read-out: Anti-HBV EC50
In short: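 HepAD38 cells (HepG2 carrying a tet-repressible HBV genotype D genome) were seeded in tetracycline-free medium and treated next day with compound […] for 7 days. Supernatant HBV DNA was measured by QPCR against a standard curve; EC50 came from 4-parameter fits of inhibition versus DMSO control.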

HBV = conditions: Phase 1b clinical trial, 600 mg bid dosing for 29 days; cited from earlier work
[2] = In vitro cytotoxicity assay (MTT cell viability) in HepG2 cells; format: cell-based, human; conditions: human
In short: as §1

[3] = HepG2 cells, MTT cell viability, 7-day incubation, tested 30 μM to 1.0 nM, read-out: HepG2 CC50

Molecule: Cc1cc(NC(=O)c2c(C)c(C(=O)C3=Nc4ccccc4B(O)O3)n(C)c2C)ccc1F [Example 256, N-(4-fluoro-3-methylphenyl)-5-(1-hydroxy-1H-enxo[c][1,5,2]oxazaborinine-3-carbonyl)-1,2,4-trimethyl-1H-pyrrole-3-carboxamide]
- CC50 (HepG2 cells; [3]): 5000 to 30000 nM
- EC50 [1]: 50 to 499 nM

Molecule: Cc1c(C(=O)Nc2ccc(F)nc2)c(C)n(C)c1C(=O)C(=O)N[C@]12C[C@@H]3C[C@@H](C[C@H]1C3)C2 [Example 19, N-(6-fluoropyridin-3-yl)-5-(2-(((2R,3as,5S,6as)-hexahydro-2,5-methanopentalen-3a(1H)-yl)amino)-2-oxoacetyl)-1,2,4-trimethyl-1H-pyrrole-3-carboxamide]
- CC50 (HepG2 cells; [3]): 5000 to 30000 nM
- EC50 [1]: < 50 nM

Molecule: Cc1c(C(=O)Nc2ccc(F)nc2)c(C)n(C)c1C(=O)C(=O)NC12C[C@@H]3C[C@@H](CC(O)(C3)C1)C2 [Example 16, N-(6-fluoropyridin-3-yl)-5-(2-(((1r,3s,5R,7S)-3-hydroxyadamantan-1-yl)amino)-2-oxoacetyl)-1,2,4-trimethyl-1H-pyrrole-3-carboxamide]
- CC50 (HepG2 cells; [3]): 5000 to 30000 nM
- EC50 [1]: 50 to 499 nM

Molecule: (S)-2-chloro-N-(4-fluoro-3- methylphenyl)-5-(2-((1- hydroxybutan-2-yl)amino)-2- oxoacetyl)-14-dimethyl-1H- pyrrole-3-carboxamide [Example 389]
- CC50 (HepG2 cells; [3]): 5000 to 30000 nM
- EC50 [1]: > 1000 nM

Molecule: Cc1cc(NC(=O)c2c(C)c(C(=O)C(=O)N[C@@H]3[C@@H]4C[C@@H]5C[C@H]3C[C@@](O)(C5)C4)n(C)c2C)ccc1F [Example 74, N-(4-fluoro-3-methylphenyl)-5-(2-(((1R,2s,3S,5s,7s)-5-hydroxyadamantan-2-yl)amino)-2-oxoacetyl)-1,2,4-trimethyl-1H-pyrrole-3-carboxamide]
- CC50 (HepG2 cells; [3]): > 30000 nM
- EC50 [1]: < 50 nM

Molecule: O=C(Nc1cc(F)c(F)c(F)c1)c1ccc(F)c(S(=O)(=O)N2CCC(O)CC2)c1 [NVR 3-778]
- reduction in HBV DNA (HBV): −1.7 log 10

Molecule: (S)-4-chloro-N-(4-fluoro-3- methylphenyl)-5-(2-((1- hydroxybutan-2-yl)amino0-2- oxoacetyl)-1,2-dimethyl-1H- pyrrole-3-carboxamide [Example 368]
- CC50 (HepG2 cells; [3]): > 30000 nM
- EC50 [1]: 50 to 499 nM

Molecule: N-(4-fluoro-3-methylphenyl)-1,2,4-trimethyl-5-(2-(((1s,4s)-4-morpholinocyclohexyl)amino)-2-oxoacetyl)-1H-pyrrole-3-carboxamide [Example 265]
- CC50 (HepG2 cells; [3]): > 30000 nM
- EC50 [1]: 50 to 499 nM

Molecule: Cc1cc(NC(=O)c2c(Cl)c(C(=O)C(=O)NC3(CO)CC3)n3c2CCCC3)ccc1F [Example 491, 2-chloro-N-(4-fluoro-3-methylphenyl)-3-(2-((1-(hydroxymethyl)cyclopropyrl)amino)-2-oxoacetyl)-5,6,7,8-tetrahydroindolizine-1-carboxamide]
- CC50 (HepG2 cells): > 30000 nM
- EC50 [1]: < 50 nM

Molecule: Cc1c(C(=O)Nc2ccnc(Cl)c2)c(C)n(C)c1C(=O)C(=O)NC1(C(F)(F)F)CCOCC1 [Example 253, N-(2-chloropyridin-4-yl)-1,2,4-trimethyl-5-(2-oxo-2-((4-(trifluoromethyl)tetrahydro-2H-pyran-4-yl)amino)acetyl)-1H-pyrrole-3-carboxamide]
- CC50 at 7 days [2]: > 30000 nM
- EC50 ([1]; Hepatitis B virus, 168 h): < 50 nM

Molecule: Cc1cc(NC(=O)c2c(C)c(C(=O)C(=O)NCCc3cccs3)n(C)c2C)ccc1F [Example 347, N-(4-fluoro-3-methylphenyl)-1,2,4-trimethyl-5-(2-oxo-2-((2-(thiophen-2-yl)ethyl)amino)acetyl)-1H-pyrrole-3-carboxamide]
- CC50 at 7 days [2]: > 30000 nM
- EC50 ([1]; Hepatitis B virus, 168 h): < 50 nM
